According to patent US12391650B2, “Catecholamine prodrugs for use in the treatment of Parkinson's disease” (H. Lundbeck A/S, priority 2019, dated 2025):
Like-named read-outs stand apart in the source and are kept apart here.

How the values were obtained:
[1] = rats; cited from earlier work
[2] = various animal models relevant for Parkinson's Disease; cited from earlier work
[3] = target: T1, human 5-HT2B receptor (Homo sapiens, UniProt P41595); assay: 5-HT2B agonist activity assay (IP1 production, HTRF, transfected CHO cells); format: cell-based
T1 construct: host or cells: CHO cells
Experimental: Evaluation of the agonist activity of compounds (I), (Ia), (Ib), (Ic), compound (2), compound (3), compound (6), compound (8), and compound (9) at the human 5-HT2B receptor was performed by Eurofins/Cerep (France) measuring the compound effects on inositol monophosphate (IP1) production using the HTRF detection method. Briefly, the human 5-HT2B receptor was expressed in transfected CHO cells. The cells were suspended in a buffer containing 10 mM Hepes/NaOH (pH 7.4), 4.2 mM KCl, 146 mM NaCl, 1 mM CaCl2, 0.5 mM MgCl2, 5.5 mM glucose and 50 mM LiCl, then distributed in microplates at a density of 4100 cells/well and incubated for 30 minutes at 37° C. in the presence of buffer (basal control), test compound or reference agonist. For stimulated control measurement, separate assay wells contained 1 μM 5-HT. Following incubation, the cells were lysed and the fluorescence acceptor (fluorophen D2-labeled IP1) and fluorescence donor (anti-IP1 antibody labeled with europium cryptate) were added. After 60 minutes at room temperature, the fluorescence transfer was measured at lambda(Ex) 337 nm and lambda(Em) 620 and 665 nm using a microplate reader (Rubystar, BMG). The IP1 concentration was determined by dividing the signal measured at 665 nm by that measured at 620 nm (ratio). The results were expressed as a percent of the control response to 1 μM 5-HT. The standard reference agonist was 5-HT, which was tested in each experiment at several concentrations to generate a concentration-response curve from which its EC50 value is calculated as described above for dopamine functional assays.

[4] = PK experiments in rats after oral dosing, plasma compound (I); format: in vivo, Han Wistar rats; conditions: Wistar rats; for Observed metabolite, in vivo PK study after oral dosing (rats): plasma
Experimental: Plasma was placed on water-ice following collection. Final storage at approximately −70° C.
Mobile phase B: Acetonitrile. […] Flow rate 0.5 mL/min.
The rats had unrestricted access to the diet.
Mobile phase B: Acetonitrile+0.2% formic acid. […] Flow rate 0.3 mL/min.
Dosing and blood sampling for compound (Ic), compound (2), compound (3), compound (8), and compound (9): Han Wistar rats were supplied by Envigo, UK. […] The rats received a standard laboratory diet Teklad 2014C. The rats had unrestricted access to the diet. […] Rats were given 494 μg/kg (Ic), 392 μg/kg compound (8), 426 μg/kg compound (9), 359 μg/kg compound (3) and 551 μg/kg compound (2).

[5] = rat hepatocytes; cited from earlier work
[6] = human hepatocytes; cited from earlier work
[7] = man, oral dosing, extensive hepatic first-pass metabolism; cited from earlier work
[8] = PD patients, intravenous (IV); cited from earlier work
[9] = Conversion of compounds in human hepatocytes; format: in vitro ADME; conditions: 1 μM compound, 37° C.
Experimental: Incubations were conducted in 96-well plates at 1 μM compound concentration in duplicate. The hepatocyte cell concentration was 0.5×10^6 cells/mL used for final incubation at 37° C. in an incubator of 5% CO2 95% relative humidity. The medium control samples were included at 0 and 60 minutes in the absence of cells. The total organic concentration was 1% (DMSO 0.1%) in the final incubation. The controls, (7-ethoxycoumarin and 7-hydroxycoumarin) was incubated parallel at […]. 2 μL of dosing solution (50 μM for test compounds and 100 μM for positive control) was mixed with 98 μL of 100 mM PBS to achieve 1 μM test compound and 2 μM positive control of final concentration. The mixture was incubated, and samples were withdrawn from the incubations at pre-determined time points of 0, 0.5, 1, 2, 4 and 6 hours (in duplicate) at 37° C. in water bath. To each sample, 10 μL inhibitor and 20 μL ascorbic acid and 2 μL formic acid (20%) were added followed by 400 μL of stop solution (200 ng/mL tolbutamide plus 200 ng/mL labetalol in 50% ACN/MeOH). The substance was mixed thoroughly and thereafter centrifuged at 4,000 rpm for 20 minutes. An aliquot of supernatant (50 μL) from each well were transferred to a sample plate and mixed with 100 μL ultrapure water. The plate was shaked at 800 rpm for about 10 minutes before submitting to LC-MS/MS analysis. […]

[10] = Conversion of compounds in human plasma; format: in vitro ADME; conditions: for Observed metabolite, incubation in human plasma: 1 μM test compound, 37° C., 0-6 hours
Experimental: Frozen human plasma was thawed and then centrifuged at 3200×g for 5 minutes to remove debris. The pH value of the supernatant was then measured and adjusted to 7.4±0.1 by adding 1% phosphoric acid or 1 N sodium hydroxide. 2 μL of dosing solution (50 μM for test compounds and 100 μM for positive control (propantheline bromide)) was mixed with 98 μL of blank plasma to achieve 1 μM test compound and 2 μM positive control of final concentration. The mixture was incubated, and samples were withdrawn from the incubations at the pre-determined time points of 0, 0.5, 1, 2, 4 and 6 hours (in duplicate) at 37° C. in water bath. At each corresponding time point 10 μL inhibitor and 20 μL ascorbic acid and 2 μL formic acid (20%) are added, and then added 400 μL of “stop solution” (200 ng/mL tolbutamide plus 200 ng/mL labetalol in 50% ACN/MeOH) to precipitate protein. The substance was mixed thoroughly and thereafter centrifugated at 4,000 rpm for 20 minutes. Then an aliquot of supernatant (50 μL) was transferred from each well to a sample plate and mixed with 100 μL ultrapure water. The plate was shaked at 800 rpm for about 10 minutes before submitting to LC-MS/MS analysis.
Instrumentation used for analysis of plasma and hepatocyte incubation samples:
Mass spectrometer (LC-MS/MS) Shimadzu LC 20-AD Shimadzu UHPLC API 4000. Analytical column ACQUITY UPLC® BEH Phenyl 1.7 μm 2.1×50 mm. Mobile phase A: 0.1% Formic Acid in water. Mobile phase B: 0.1% formic acid in acetonitrile. […] Flow rate 0.7 mL/min.

[11] = rats; cited from earlier work; remark: listed apart in the source
[12] = percent of the control response to 1 μM 5-HT

T1 sequence (P41595 whole entry): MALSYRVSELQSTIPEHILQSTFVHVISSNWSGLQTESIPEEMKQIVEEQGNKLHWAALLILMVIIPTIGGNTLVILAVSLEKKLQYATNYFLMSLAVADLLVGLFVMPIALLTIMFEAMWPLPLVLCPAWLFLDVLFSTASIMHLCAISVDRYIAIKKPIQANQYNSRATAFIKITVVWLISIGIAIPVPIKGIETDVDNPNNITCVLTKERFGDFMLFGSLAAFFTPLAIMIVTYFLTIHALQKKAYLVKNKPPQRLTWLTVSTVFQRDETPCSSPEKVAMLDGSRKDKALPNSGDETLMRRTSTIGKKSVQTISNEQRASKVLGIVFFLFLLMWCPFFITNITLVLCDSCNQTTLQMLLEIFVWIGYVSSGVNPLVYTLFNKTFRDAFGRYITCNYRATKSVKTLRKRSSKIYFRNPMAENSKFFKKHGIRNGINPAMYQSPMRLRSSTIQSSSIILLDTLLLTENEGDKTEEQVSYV

SMILES | In vivo pharmacology, efficacy [2] | Plasma concentration profile of compound (I) after oral dosing, in words [4] | 5-HT2B % effect @ 10 μM [3, 12] | Observed metabolite, incubation in human plasma [10] | Observed metabolite, in vivo PK study after oral dosing (rats) [4] | other results
CCCN1CCC[C@@H]2CC3=C(CCCC3=O)C[C@H]21 [(Ia), reference compound] | effective | early and high peak plasma concentrations of compound (I) |  |  |  | Conversion to the active compound (I) [1]: converted to the active compound (I); 5-HT2B % effect @ 30 μM ([3]; 30 μM, percent of the control response to 1 μM 5-HT): 58%
CCCN1CCC[C@@H]2Cc3c(ccc4c3OCO4)C[C@H]21 [(Ib), (6aR,10aR)-7-propyl-6,6a,7,8,9,10,10a,11-octahydro-[1,3]dioxolo[4′,5′:5,6]benzo[1,2-g]quinoline] | effective | early and high peak plasma concentrations of compound (I) |  |  |  | Conversion to compound (I) [5]: demonstrated; Conversion to compound (I) [6]: demonstrated; 5-HT2B receptor agonism, in words [3]: agonist of the 5-HT2B receptor
CCCN1CCC[C@@H]2Cc3c(ccc(OC(=O)C(C)(C)C)c3OC(=O)C(C)(C)C)C[C@H]21 [(Ic), reference compound] |  | extremely low | −5% @ 10 μM |  |  | 
CCCc1cc2c(s1)CN[C@@H]1CCc3cc(OC(C)=O)c(OC(C)=O)cc3[C@@H]21 [Adrogolide] |  |  |  |  |  | Oral bioavailability [7]: ~4%; Antiparkinson efficacy [8]: comparable to that of L-DOPA
CCCN1CCC[C@@H]2Cc3c(ccc(OCc4ccccc4)c3O)C[C@H]21 [Compound (2), (4aR,10aR)-7-(benzyloxy)-1-propyl-1,2,3,4,4a,5,10,10a-octahydrobenzo[g]quinolin-6-ol] |  |  | 30% @ 10 μM | Compound (1) | Compound (1) | Observed metabolite, incubation in human hepatocytes [9]: Compound (1)
CCCN1CCC[C@@H]2Cc3c(ccc(OC)c3O)C[C@H]21 [Compound (3), (4aR,10aR)-7-methoxy-1-propyl-1,2,3,4,4a,5,10,10a-octahydrobenzo[g]quinolin-6-ol] |  |  | 27% @ 10 μM |  | Compound (1) | Observed metabolite, incubation in human hepatocytes [9]: Compound (1)
CCCN1CCC[C@@H]2Cc3c(ccc(OP(=O)(O)O)c3OP(=O)(O)O)C[C@H]21 [Compound (6), (4aR,10aR)-1-propyl-1,2,3,4,4a,5,10,10a-octahydrobenzo[g]quinoline-6,7-diyl bis(dihydrogen phosphate)] |  |  | 4% @ 10 μM | Compound (8) |  | Observed metabolite, incubation in human plasma ([10]; listed as compound (6)): compound (8) was formed; Appearance of compound (I) in incubation ([10]; human plasma, in words): no appearance of compound (I) was observed
CCCN1CCC[C@@H]2Cc3c(ccc(O)c3OP(=O)(O)O)C[C@H]21 [Compound (8), (4aR,10aR)-7-hydroxy-1-propyl-1,2,3,4,4a,5,10,10a-octahydrobenzo[g]quinolin-6-yl dihydrogen phosphate] |  |  |  | Compound (1) | Compound (1) | 5-HT2B % effect @ 1 μM ([3]; 1 μM, percent of the control response to 1 μM 5-HT): 0% @ 1 μM
CCC[N@+]1(COP(=O)([O-])O)CCC[C@@H]2Cc3c(ccc(O)c3O)C[C@H]21 [Compound (9), ((1S,4aR,10aR)-6,7-dihydroxy-1-propyl-1,2,3,4,4a,5,10,10a-octahydrobenzo[g]quinolin-1-ium-1-yl)methyl hydrogen phosphate] |  |  | −1% @ 10 μM | Compound (1) | Compound (1) | 
CCCN1CCC[C@@H]2Cc3c(ccc(O)c3O)C[C@H]21 [compound (I), (4aR,10aR)-1-n-Propyl-1,2,3,4,4a,5,10,10a-octahydro-benzo[g]quinoline-6,7-diol] | effective |  |  |  |  | Oral bioavailability, in words [11]: low oral bioavailability; Half-life in the plasma assay ([10]; human plasma, in words): short half-life
